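Briefly, cells in 96-well plates were exposed to five compound concentrations for 48 h, and endpoints were estimated by linear interpolation. GI50 = concentration required for 50% inhibition of growth.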 Active and inactive are the calls of the source. No stated cut-off is given here; in the data, active = GI50 up to about 1.1 µM and inactive = higher.
Columns and labels:
Test in all cases: inhibition of tumour cell growth, NCI panel, 48 h
COLO 205 = test system: COLO 205
EKVX = test system: EKVX
HCC 2998 = test system: HCC 2998
MDA-MB-231 = test system: MDA-MB-231
MDA-MB-435 = test system: MDA-MB-435
NCI-H226 = test system: NCI-H226
OVCAR-3 = test system: OVCAR-3
OVCAR-4 = test system: OVCAR-4
OVCAR-5 = test system: OVCAR-5
OVCAR-8 = test system: OVCAR-8
RPMI-8226 = test system: RPMI-8226
SK-MEL-28 = test system: SK-MEL-28
SK-MEL-5 = test system: SK-MEL-5
SW-620 = test system: SW-620
T47D = test system: T47D
U-251 = test system: U-251
UACC-257 = test system: UACC-257
A498 = test system: A498
BT-549 = test system: BT-549
SNB-19 = test system: SNB-19

Measured: GI50

c1ccc2c(c1)c1c(n2CCOCCN2CCCC2)CCCC1
inactive: COLO 205 19.5 µM | EKVX 25.9 µM | HCC 2998 16.6 µM | MDA-MB-231 16.4 µM | MDA-MB-435 18.9 µM | NCI-H226 22.4 µM | OVCAR-3 25.4 µM | OVCAR-4 16.8 µM | OVCAR-5 17.8 µM | OVCAR-8 22.4 µM | RPMI-8226 18.2 µM | SK-MEL-28 16 µM | SK-MEL-5 15.2 µM | SW-620 16.2 µM | T47D 28.7 µM | U-251 13.1 µM | UACC-257 22.4 µM

C=C(C)[C@H]1CC(=O)/C(C)=C\CC/C(C)=C/CC[C@@]2(C)O[C@@H]2C1
inactive: A498 > 100 µM | BT-549 47.6 µM | COLO 205 16.5 µM | HCC 2998 34.5 µM | MDA-MB-231 34.2 µM | MDA-MB-435 17 µM | OVCAR-3 17 µM | OVCAR-4 22 µM | OVCAR-5 35.4 µM | OVCAR-8 35.5 µM | RPMI-8226 20.7 µM | SK-MEL-28 19.2 µM | SK-MEL-5 23.7 µM | SNB-19 59.8 µM | SW-620 46.3 µM | U-251 22.5 µM | UACC-257 81.7 µM

O=S1(=O)c2cnccc2N=C(NCc2ccccc2)N1c1ccccc1
inactive: A498 > 100 µM | BT-549 > 100 µM | COLO 205 61.9 µM | EKVX > 100 µM | HCC 2998 67.1 µM | MDA-MB-435 92.3 µM | NCI-H226 > 100 µM | OVCAR-3 45.7 µM | OVCAR-4 > 100 µM | OVCAR-5 > 100 µM | OVCAR-8 78 µM | RPMI-8226 20.6 µM | SK-MEL-28 > 100 µM | SK-MEL-5 55.5 µM | SNB-19 > 100 µM | SW-620 > 100 µM | T47D 35.8 µM | U-251 98.2 µM | UACC-257 > 100 µM

Cn1cnc([N+](=O)[O-])c1Sc1nc2cccnc2[nH]1
inactive: A498 > 100 µM | COLO 205 17.8 µM | EKVX 28.5 µM | HCC 2998 > 100 µM | NCI-H226 > 100 µM | OVCAR-3 > 100 µM | OVCAR-4 41.1 µM | OVCAR-5 > 100 µM | OVCAR-8 86.5 µM | RPMI-8226 68.5 µM | SK-MEL-28 62.5 µM | SK-MEL-5 > 100 µM | SNB-19 > 100 µM | SW-620 49.9 µM | U-251 > 100 µM | UACC-257 91.2 µM

C/C(CN1C(=O)c2ccccc2C1=O)=N\NS(C)(=O)=O
inactive: A498 > 100 µM | COLO 205 > 100 µM | EKVX > 100 µM | HCC 2998 > 100 µM | NCI-H226 > 100 µM | OVCAR-3 > 100 µM | OVCAR-4 > 100 µM | OVCAR-5 > 100 µM | OVCAR-8 > 100 µM | RPMI-8226 > 100 µM | SK-MEL-28 > 100 µM | SK-MEL-5 > 100 µM | SNB-19 > 100 µM | SW-620 > 100 µM | U-251 > 100 µM | UACC-257 > 100 µM

OC1c2ccccc2CC12Cc1ccccc1C2 (stereo unspecified)
active: NCI-H226 0.35 µM
inactive: A498 > 100 µM | COLO 205 31.2 µM | EKVX > 100 µM | HCC 2998 > 100 µM | MDA-MB-231 > 100 µM | MDA-MB-435 > 100 µM | OVCAR-3 90.2 µM | OVCAR-4 > 100 µM | OVCAR-5 > 100 µM | OVCAR-8 > 100 µM | RPMI-8226 48.2 µM | SK-MEL-28 > 100 µM | SK-MEL-5 22.6 µM | SNB-19 > 100 µM | SW-620 > 100 µM | T47D > 100 µM | U-251 > 100 µM | UACC-257 44.9 µM

COc1ccc(C2OC(=O)c3c2ccc2ccccc32)c(C)c1 (stereo unspecified)
inactive: A498 1.93 µM | BT-549 10.5 µM | COLO 205 1.15 µM | EKVX 6.07 µM | MDA-MB-231 3 µM | NCI-H226 5.25 µM | OVCAR-5 13.2 µM | OVCAR-8 4.06 µM | RPMI-8226 3.18 µM | SK-MEL-28 2.92 µM | SK-MEL-5 1.77 µM | SNB-19 4.8 µM | SW-620 1.14 µM | U-251 3.43 µM | UACC-257 3.78 µM
active: HCC 2998 1.02 µM

CCOC(=O)C1Oc2ccc([N+](=O)[O-])c3c2C1(O)CCC3 (stereo unspecified)
inactive: A498 56.2 µM | COLO 205 > 100 µM | EKVX > 100 µM | HCC 2998 > 100 µM | NCI-H226 > 100 µM | OVCAR-3 > 100 µM | OVCAR-4 > 100 µM | OVCAR-5 > 100 µM | OVCAR-8 > 100 µM | RPMI-8226 > 100 µM | SK-MEL-28 > 100 µM | SK-MEL-5 > 100 µM | SNB-19 > 100 µM | SW-620 > 100 µM | U-251 > 100 µM | UACC-257 > 100 µM

Source: ChEMBL document CHEMBL1201862, “PubChem BioAssay data set” (2004)
